Laboratory results as given in article PMC5601071 (Frontiers in Pharmacology, 2017).
Where two headings read alike, the source gives them in different places. Values belong to the molecule of their own block, whether it stands above or below them. Residues, ends and D or L forms follow the SMILES beside them. *: point of attachment. 5FAM = O=C1OC2(c3ccc(O)cc3Oc3cc(O)ccc32)c2ccc(C(=O)*)cc21; Biotin = O=C1N[C@H]2[C@H](CS[C@H]2CCCCC(=O)*)N1; Dansyl = CN(C)c1cccc2c(S(=O)(=O)*)cccc12

What was measured:
[1] = molecular target: T1, TREK-1 channel (hTREK-1/HEK cells) (Homo sapiens, UniProt O95069); conditions: ref Mazella et al., 2010, Moha ou Maati et al., 2011, cited from earlier work
T1 construct: expressed in transfected cells
T1 sequence (O95069 1-426): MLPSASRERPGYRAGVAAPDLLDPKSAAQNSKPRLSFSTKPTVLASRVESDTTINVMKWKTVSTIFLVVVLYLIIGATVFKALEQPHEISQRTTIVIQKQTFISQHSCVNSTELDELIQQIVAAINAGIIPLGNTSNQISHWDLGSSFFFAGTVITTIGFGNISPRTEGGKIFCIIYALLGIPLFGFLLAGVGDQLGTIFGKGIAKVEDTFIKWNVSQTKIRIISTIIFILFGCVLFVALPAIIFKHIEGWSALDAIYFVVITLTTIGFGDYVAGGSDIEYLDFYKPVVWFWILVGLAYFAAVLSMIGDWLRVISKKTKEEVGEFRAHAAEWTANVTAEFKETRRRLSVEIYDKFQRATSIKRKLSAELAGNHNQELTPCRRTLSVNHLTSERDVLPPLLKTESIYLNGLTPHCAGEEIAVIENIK
Source text: Depression is a devastating mental disorder that affects 20% of the population worldwide. Despite their proven efficacy, antidepressants present a delayed onset of action and serious adverse effects. Seven years ago, we described spadin (PE 12-28) as a promising endogenous peptide with antidepressant activity. Spadin specifically blocks the TREK-1 channel. […] In order to improve in vivo spadin stability and bioavailability, we screened spadin analogs and derivatives. From the study of spadin blood deg ... || Depression is one of the most common mood disorders that represents a heavy economic burden in industrialized countries (Smith, [2014]). Severe depression affects 2–5% of US citizens and up to 20% of the population suffer from mild depression (Nestler et al., [2002]; Maletic et al., [2007]; Krishnan and Nestler, [2008]; Kessler et al., [2012]). Depression is a complex syndrome with a variety of causes mostly genetic and environmental (Nestler et al., [2002]).

[2] = molecular target: T1, TREK-1 channel (hTREK-1/HEK cells); experiment: TREK-1 current inhibition, whole-cell patch-clamp on hTREK-1/HEK cell line; type: cell-based
Protocol: The human TREK-1/HEK cell line (Moha ou Maati et al., [2011]) and the native HEK293 cell line were maintained in Dulbecco's Modified Eagle's Medium (DMEM) supplemented with 10% (v/v) heat-inactivated fetal bovine serum, 1% (v/v) penicillin-streptomycin, 1% Glutamax. For the hTREK-1/HEK cells, 0.5 mg/ml G418 were added to the medium.
Cells were incubated in a humidified atmosphere containing 5% CO2. For electrophysiological measurements, cells were plated at a density of 20,000 cells per 35 mm dish.
Cells from the hTREK-1/HEK cell line were seeded at a density of 20,000 cells/35 mm dish. Electrophysiological recordings were performed 24–48 h after plating using the whole-cell configuration of patch-clamp technique. TREK-1 currents (ITREK−1) were recorded using RK400 patch-clamp amplifier (Axon Instrument, USA). They were low-pass filtered at 3 kHz and digitized at 10 kHz using a 12-bit analog-to-digital converter digidata (1322 series, Axon Instrument, USA). ITREK−1amplitudes were expressed as current densities [current amplitude (pA)/membrane capacitance (pF)]. The results were expressed as mean ± SEM (standard error of the mean).
Cells were continuously perfused using an external bath solution containing in mM: 150 NaCl, 5 KCl, 3 MgCl2, 1 CaCl2, and 10 HEPES. The bath solution was initially adjusted to pH 7.4 with NaOH. The intra-pipette solution contained in mM: 155 KCl, 3 MgCl2, 5 EGTA, and 10 HEPES adjusted to pH 7.2 with KOH. In order to measure ITREK−1, a cocktail of potassium channel blockers was added to the bath solution. This cocktail contained: 3 mM 4-AP (4-aminopyridine), 10 mM TEA (tetraethylammonium), 10 μM Glibenclamide, 100 nM Apamin, and 50 nM Charybdotoxin. Data acquisition was carried out using a computer (Dell Pentium) with pClamp software (Axon Instrument, USA). Whole-cell currents were generated by running a pulse or ramp protocol every 5 s from −100 to +60 mV with a holding potential maintained at −80 mV. To evaluate the inhibitory effect on TREK-1 channels of shortened spadin analogs compared with spadin, cells were first activated by 10 μM arachidonic acid (AA). Dose-response curves were realized to compare spadin-analog effects with spadin using Origin 8.6 (Northampton, MA, USA).
Patch-clamp recording data were analyzed using Clampfit (Molecular Devices, USA). I = f(V) curves were obtained from −100 to +60 mV ramp. Data were presented as mean ± SEM.

[3] = In vitro degradation / half-life time in serum; type: in vitro ADME, mouse; conditions: for time of maximal appearance of degradation peak in serum: spadin incubated with mouse serum, HPLC peaks identified by mass spectroscopy
Protocol: […] Incubations were stopped by direct acidification (5 μl of 2.5 M HCl), loaded in C-18 sepack cartridges, lyophilized, resuspended in 20% acetonitrile before loading onto HPLC for analysis of PE degradation/stability. Elutions of HPLC products were carried out by means of a 50-min linear gradient of acetonitrile from 20 to 70% at a flow rate of 1 ml/min. The amount of the intact PE for each incubation time was expressed as the percent of the initial amount of spadin.

mouse serum = conditions: 37°C (Figure 1 legend), room temperature, up to 60 min
[4] = HEK293, peptide 100 nM, TREK-1 first activated with 10 μM arachidonic acid (AA), current density at 0 mV, hTREK-1/HEK cells, mean ± SEM, n = cells, read-out: % of TREK-1 inhibition

Molecule: CC[C@H](C)[C@H](NC(=O)[C@@H]1CCCN1C(=O)CNC(=O)[C@H](CO)NC(=O)[C@H](Cc1c[nH]c2ccccc12)NC(=O)[C@H](CCCNC(=N)N)NC(=O)[C@@H]1CCCN1C(=O)[C@H](CC(C)C)NC(=O)[C@@H]1CCCN1C(=O)[C@H](C)N)C(=O)NCC(=O)N[C@H](C(=O)N[C@@H](CO)C(=O)N[C@@H](Cc1c[nH]c2ccccc12)C(=O)NCC(=O)N[C@@H](CC(C)C)C(=O)N[C@@H](CCCNC(=N)N)C(=O)O)C(C)C [PE 12-28 (Spadin), reference compound] (H-APLPRWSGPIGVSWGLR-OH)
IC50 ([1]; Moha Ou Maati et al., 2012, read-out: IC50 for TREK-1 block (spadin)): 40 to 60 nM
inhibition at 0.1 µM [2, 4]: 44.4 ± 8.82%
IC50 ([2]; dose-response curves at 0 mV, hTREK-1/HEK cells, activated by 10 μM AA): 40 nM
spadin remaining after incubation with serum ([3]; mouse serum, 30 min, 37°C (method b20: 10 nmoles in 200 μl serum, room temperature), HPLC): disappearance of almost all spadin

Molecule: CNCCC(Oc1ccc(C(F)(F)F)cc1)c1ccccc1 (centres unmarked) [fluoxetine]
IC50 ([1]; read-out: IC50 for TREK-1 block (fluoxetine)): ~6000 nM

Molecule: CC[C@H](C)[C@H](NC(=O)[C@@H]1CCCN1C(=O)CNC(=O)[C@H](CO)NC(=O)[C@H](Cc1c[nH]c2ccccc12)NC(=O)[C@H](CCCNC(=N)N)NC(=O)[C@@H]1CCCN1C(=O)[C@H](CC(C)C)NC(=O)[C@@H]1CCCN1C(=O)[C@H](C)N)C(=O)NCC(=O)N[C@H](C(=O)N[C@@H](CO)C(=O)N[C@@H](Cc1c[nH]c2ccccc12)C(=O)NCC(=O)N[C@@H](CC(C)C)C(=O)O)C(C)C [PE 12-27] (H-APLPRWSGPIGVSWGL-OH)
inhibition at 0.1 µM [2, 4]: 28.4 ± 9.9%
time of maximal appearance of degradation peak in serum [3]: 30 min

fragment found (mouse serum): PE 12-27
Molecule: APLPRWSGPIGVSWGLR

Molecule: CC(C)C[C@H](NC(=O)CNC(=O)[C@H](Cc1c[nH]c2ccccc12)NC(=O)[C@H](CO)NC(=O)[C@@H](NC(=O)CN)C(C)C)C(=O)N[C@@H](CCCNC(=N)N)C(=O)O [PE 22-28] (H-GVSWGLR-OH)
inhibition at 0.1 µM [2, 4]: 55.5 ± 4.55%

Molecule: CC(C)C[C@H](NC(=O)CNC(=O)[C@H](Cc1c[nH]c2ccccc12)NC(=O)[C@H](CO)NC(=O)[C@@H](NC(=O)CNC(=O)CCCC[C@@H]1SC[C@@H]2NC(=O)N[C@@H]21)C(C)C)C(=O)N[C@@H](CCCNC(=N)N)C(=O)O [Biotinylated-PE 22-28] (Biotin-GVSWGLR-OH)
inhibition at 0.1 µM [2, 4]: 53 ± 6.42%

Molecule: CC[C@H](C)[C@H](NC(=O)[C@@H]1CCCN1C(=O)CNC(=O)[C@H](CO)NC(=O)[C@H](Cc1c[nH]c2ccccc12)NC(=O)[C@H](CCCNC(=N)N)NC(=O)[C@@H]1CCCN1C(=O)[C@@H](N)CC(C)C)C(=O)NCC(=O)N[C@H](C(=O)N[C@@H](CO)C(=O)N[C@@H](Cc1c[nH]c2ccccc12)C(=O)O)C(C)C [PE 14-25] (H-LPRWSGPIGVSW-OH)
inhibition at 0.1 µM [2, 4]: -14.7 ± 10.6%
current density measured at 0 mV compared with AA activity alone (100%) ([2]; peptide 100 nM after 10 μM AA, n = 8, p = 0.09): 114.7 ± 10.6%
time of maximal appearance of degradation peak in serum [3]: 15 min

Molecule: CC(C)C[C@H](NC(=O)CNC(=O)[C@H](Cc1c[nH]c2ccccc12)NC(=O)[C@H](CO)NC(=O)[C@@H](NC(=O)CNC(=O)c1ccc2c(c1)C(=O)OC21c2ccc(O)cc2Oc2cc(O)ccc21)C(C)C)C(=O)N[C@@H](CCCNC(=N)N)C(=O)O [5'FAM-PE 22-28] (5FAM-GVSWGLR-OH)
inhibition at 0.1 µM [2, 4]: 6.63 ± 7.07%

Molecule: CC(C)C[C@H](NC(=O)CNC(=O)[C@H](Cc1c[nH]c2ccccc12)NC(=O)[C@H](CO)NC(=O)[C@@H](NC(=O)CNS(=O)(=O)c1cccc2c(N(C)C)cccc12)C(C)C)C(=O)N[C@@H](CCCNC(=N)N)C(=O)O [DansyI-PE 22-28] (Dansyl-GVSWGLR-OH)
inhibition at 0.1 µM ([2]; HEK293, read-out: % of TREK-1 inhibition): 48.8 ± 14.5%

Molecule: CC(C)[C@H](NC(=O)CN)C(=O)N[C@@H](CO)C(=O)N[C@@H](Cc1c[nH]c2ccccc12)C(=O)O [PE 22-25] (H-GVSW-OH)
inhibition at 0.1 µM [2, 4]: 36 ± 17.5%

Molecule: CC[C@H](C)[C@H](NC(=O)[C@@H]1CCCN1)C(=O)NCC(=O)N[C@H](C(=O)N[C@@H](CO)C(=O)N[C@@H](Cc1c[nH]c2ccccc12)C(=O)NCC(=O)N[C@@H](CC(C)C)C(=O)N[C@@H](CCCNC(=N)N)C(=O)O)C(C)C [PI-PE 22-28] (H-PIGVSWGLR-OH)
inhibition at 0.1 µM [2, 4]: 46.2 ± 7.57%
